Source: patent publication US20240207282A1, “METHOD OF INCREASING CHAPERONE MEDIATED AUTOPHAGY BY STABILIZING THE INTERACTION OF RETINOIC ACID RECEPTOR-ALPHA AND AN INHIBITOR” (ALBERT EINSTEIN COLLEGE OF MEDICINE, priority 2021, published 2024)

Columns and labels:
KFERQ-Dendra mice = experiment: CMA activation in vivo in KFERQ-Dendra mice; design: species or system mouse; details: i.p. 30 mg/kg bw daily, three days
Text: Animals: C57BL/6J mice wild-type (WT) and homozygous for the Pde6 mutation (rd10 mouse model of retinal degeneration) were obtained from The Jackson Laboratory. C57BL/6 KFERQ-Dendra mice were generated by back-crossing FVB KFERQ-Dendra mice with wild-type C57BL/6 mice for 8 generations. Both male and female animals were used in this study in equal distribution groups. However, results from both sexes were pooled, because of absence of significant differences in any of the parameters analyzed after statistical analysis with a mixed model of two-way ANOVA sex and treatment as independent variables and the corresponding measure as dependent variable. […]
CMA activity: Cells were transduced with lentivirus carrying the KFERQ-PS-Dendra reporter as before. […] Images were quantified using the manufacturer's software in a minimum of 1,200 cells in 9 independent fields per well. […] To avoid con-funding effects for drug-induced changes in cell volume or adherence to the plate that could bring a fraction of the cells per field outside of focus, we set a threshold to count only cells that have at least 1/10 of the average number of […] detected in the untreated wells for each cell type (3-4 puncta/cell in the case of NIH3T3 and N2a cells and 5 puncta/cell in primary human fibroblasts). […] Slices were mounted in DAPI-Fluoromount-G to highlight the cell nucleus and allow quantification of puncta per cell. […]

[1] = biological target: T1, human RARα LBD / NCoR1 peptide (Homo sapiens, UniProt P10276); experiment: Fluorescence polarization binding assay, RARα LBD with FITC-NCoR1 peptide; details: 10 μM compound
T1 construct: human RARα (residues 176-421); His tag; made in house; host or cells: Escherichia coli BL21(DE3)
Protocol: The histidine-tagged ligand binding domain (LBD) of human RARα (residues 176-421) was expressed in Escherichia colic BL21(DE3). Cells were grown at 37° C. in LB medium supplemented with 50 μg/mL kanamycin until OD600 reached about 0.8. Expression of T7 polymerase was induced by addition of isopropyl-b-d-thiogalactoside (IPTG) to a final concentration of 0.8 mM and cells were incubated at 20° C. overnight. Cell cultures were harvested by centrifugation at 8,000×g for 15 mins. The cell pellet from 1 liter of RARα LBD was resuspended in 50 mL lysis buffer (20 mM Tris-HCl pH 8, 500 mM NaCl, 25 mM imidazole) supplemented with ONE COMPLETE, an EDTA-free protease inhibitor tablet (Roche Applied Science). The suspension was lysed using a high-pressure homogenizer and centrifuged at 35,000×g at 4° C. for 45 minutes. […]
The fluorescein-tagged peptide of NCoR1, FITC-Ahx-RLITLADHICQIITQDFAR (FITC-NCoR1) was provided by Genscript at purity>95%. Fluorescence polarization assays (FPA) were performed using established procedures. […] Fluorescence polarization was measured at 30 min on a F200 PRO microplate reader (TECAN) with the excitation wavelength set at 470 nm and emission measured at 530 nm. EC50 values were calculated by nonlinear regression analysis of competitive binding curves using Graphpad Prism software.

human cells = experiment: CMA activity, KFERQ-PS-Dendra reporter in human cells; type: cell-based
Protocol: Cells: NIH3T3 mouse fibroblasts and the N2a neuroblastoma cell line were obtained from the American Type Culture Collection and were validated by genomic PCR. Primary human fibroblasts (GM01651) were from Coriell Repository. All the cells lines were tested for mycoplasma contamination using DNA staining protocol with Hoechst 33258 dye. Knock-down of NCoR1 was done using lentiviral mediated shRNA (SHCLNG-NM_011308) from the Sigma Mission library following standard procedures. Efficiency of knock-down was tested by immunoblot. Cell viability was measured using the CellTiter-Blue kit (Promega) 24 h after the addition of the different stressors according to manufacturer's instructions.
CMA activity: Cells were transduced with lentivirus carrying the KFERQ-PS-Dendra reporter as before. Cells were photoactivated by exposure to a 3.5 mA (current constant) light emitting diode (LED: Norlux, 405 nm) for 3 min and then plated in glass-bottom 96 well plates. At the desired times, cells were fixed with 4% PFA and imaged using high-content microscopy (Operetta system, Perkin Elmer). Images were quantified using the manufacturer's software in a minimum of 1,200 cells in 9 independent fields per well. […] To avoid con-funding effects for drug-induced changes in cell volume or adherence to the plate that could bring a fraction of the cells per field outside of focus, we set a threshold to count only cells that have at least 1/10 of the average number of […] detected in the untreated wells for each cell type (3-4 puncta/cell in the case of NIH3T3 and N2a cells and 5 puncta/cell in primary human fibroblasts). […] Slices were mounted in DAPI-Fluoromount-G to highlight the cell nucleus and allow quantification of puncta per cell. Images were acquired in x-y-z planes with an Axiovert 200 fluorescence microscope (Carl Zeiss Ltd) with a ×63 objective and 1.4 numerical aperture, mounted with an ApoTome.2 slider or with a Confocal microscope (TCS SP5; Leica) using an HCX Plan Apo CS×63.0 1.40 NA oil objective and the Leica Application Suite X (LAS X).

T1 sequence (P10276 176-421, other chains not shown): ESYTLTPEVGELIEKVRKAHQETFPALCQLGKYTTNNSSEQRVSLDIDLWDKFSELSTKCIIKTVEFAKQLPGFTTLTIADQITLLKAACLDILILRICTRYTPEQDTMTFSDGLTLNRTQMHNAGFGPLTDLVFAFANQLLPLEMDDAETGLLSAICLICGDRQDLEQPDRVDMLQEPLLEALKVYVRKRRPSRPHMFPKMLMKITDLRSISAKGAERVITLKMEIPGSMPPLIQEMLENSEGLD

| Compound | CMA activation in vivo (KFERQ-Dendra mice) | NCoR1 peptide binding to RARα [1] | CMA activation (human cells) |
| --- | --- | --- | --- |
| Clc1ccc2c(c1)OCC(c1ccc(-c3ccccc3)cc1)=N2 [CA39] | activate CMA with comparable potency in vivo both in peripheral blood cells and in multiple organs | enhanced NCoR1 peptide binding to RARα | efficiently activate CMA |
| CC(=O)Nc1ccc(C2=Nc3ccc(Cl)cc3OC2)cc1 [CA77] | activate CMA with comparable potency in vivo both in peripheral blood cells and in multiple organs | enhanced NCoR1 peptide binding to RARα | efficiently activate CMA |
